Test system: HIV in the HTLV-1 transformed cell line MT-4
Experiment: organism not typed
Format: cell-based
Settings: MT-4 cells, luciferase/cell titer glo readout after 96 hours, 10 point dose response

SMILES	IC50 (MT4, 96 h)	IC50
COc1ccccc1C(=O)N1Cc2c(C)c(-c3ccc(C)cc3)c([C@H](OC(C)(C)C)C(=O)O)c(C)c2C1 [Example 163, (S)-2-(tert-butoxy)-2-(2-(2-methoxybenzoyl)-4,7-dimethyl-6-(p-tolyl)isoindolin-5-yl)acetic acid]	4 nM	
Cc1ccc(-c2c(C)c3c(c(C)c2[C@H](OC(C)(C)C)C(=O)O)CN(C(=O)c2cccc4c2OCC4)C3)cc1 [Example 164, (S)-2-(tert-butoxy)-2-(2-(2,3-dihydrobenzofuran-7-carbonyl)-4,7-dimethyl-6-(p-tolyl)isoindolin-5-yl)acetic acid]	4 nM	
Cc1ccc(-c2c(C)c3c(c(C)c2[C@H](OC(C)(C)C)C(=O)O)CN(C(=O)c2cccc4c2ccn4C)C3)cc1 [Example 165, (S)-2-(tert-butoxy)-2-(4,7-dimethyl-2-(1-methyl-1H-indole-4-carbonyl)-6-(p-tolyl)isoindolin-5-yl)acetic acid]	108 nM	
Cc1ccc(-c2c(C)c3c(c(C)c2[C@H](OC(C)(C)C)C(=O)O)CN(C(=O)c2cccc4sccc24)C3)cc1 [Example 166, (S)-2-(2-(benzo[b]thiophene-4-carbonyl)-4,7-dimethyl-6-(p-tolyl)isoindolin-5-yl)-2-(tert-butoxy)acetic acid]	27 nM	
Cc1ccc(-c2c(C)c3c(c(C)c2[C@H](OC(C)(C)C)C(=O)O)CN(C(=O)c2cccc4ccoc24)C3)cc1 [Example 167, (S)-2-(2-(benzofuran-7-carbonyl)-4,7-dimethyl-6-(p-tolyl)isoindolin-5-yl)-2-(tert-butoxy)acetic acid]	4 nM	
Cc1ccc(-c2c(C)c3c(c(C)c2[C@H](OC(C)(C)C)C(=O)O)CN(C(=O)c2ccccc2C)C3)cc1 [Example 219, (S)-2-(tert-butoxy)-2-(4,7-dimethyl-2-(2-methylbenzoyl)-6-(p-tolyl)isoindolin-5-yl)acetic acid]	4 nM	
Cc1ccc(-c2c(C)c3c(c(C)c2[C@H](OC(C)(C)C)C(=O)O)CN(C(=O)c2cccc(Cl)c2)C3)cc1 [Example 220, (S)-2-(tert-butoxy)-2-(2-(3-chlorobenzoyl)-4,7-dimethyl-6-(p-tolyl)isoindolin-5-yl)acetic acid]	4 nM	
Cc1ccc(-c2c(C)c3c(c(C)c2[C@H](OC(C)(C)C)C(=O)O)CN(C(=O)c2cccc(F)c2C)C3)cc1 [Example 221, (S)-2-(tert-butoxy)-2-(2-(3-fluoro-2-methylbenzoyl)-4,7-dimethyl-6-(p-tolyl)isoindolin-5-yl)acetic acid]	4 nM	
COc1cc(C(=O)N2Cc3c(C)c(-c4ccc(C)cc4)c([C@H](OC(C)(C)C)C(=O)O)c(C)c3C2)ccc1C [Example 222, (S)-2-(tert-butoxy)-2-(2-(3-methoxy-4-methylbenzoyl)-4,7-dimethyl-6-(p-tolyl)isoindolin-5-yl)acetic acid]	4 nM	
Cc1ccc(-c2c(C)c3c(c(C)c2[C@H](OC(C)(C)C)C(=O)O)CN(C(=O)c2ccnn2C)C3)cc1 [Example 223, (S)-2-(tert-butoxy)-2-(4,7-dimethyl-2-(1-methyl-1H-pyrazole-5-carbonyl)-6-(p-tolyl)isoindolin-5-yl)acetic acid]	13 nM	
Cc1ccc(-c2c(C)c3c(c(C)c2[C@H](OC(C)(C)C)C(=O)O)CN(C(=O)c2ccc(C(C)(C)C)cc2)C3)cc1 [Example 224, (S)-2-(tert-butoxy)-2-(2-(4-(tert-butyl)benzoyl)-4,7-dimethyl-6-(p-tolyl)isoindolin-5-yl)acetic acid]	44 nM	
Cc1ccc(-c2c(C)c3c(c(C)c2[C@H](OC(C)(C)C)C(=O)O)CN(C(=O)c2cccc(C)c2)C3)cc1 [Example 225, (S)-2-(tert-butoxy)-2-(4,7-dimethyl-2-(3-methylbenzoyl)-6-(p-tolyl)isoindolin-5-yl)acetic acid]	5 nM	
Cc1ccc(-c2c(C)c3c(c(C)c2[C@H](OC(C)(C)C)C(=O)O)CN(C(=O)c2cc(F)cc(Cl)c2)C3)cc1 [Example 226, (S)-2-(tert-butoxy)-2-(2-(3-chloro-5-fluorobenzoyl)-4,7-dimethyl-6-(p-tolyl)isoindolin-5-yl)acetic acid]	5 nM	
Cc1ccc(-c2c(C)c3c(c(C)c2[C@H](OC(C)(C)C)C(=O)O)CN(C(=O)c2ccc(C(F)(F)F)cc2)C3)cc1 [Example 227, (S)-2-(tert-butoxy)-2-(4,7-dimethyl-6-(p-tolyl)-2-(4-(trifluoromethyl)benzoyl)isoindolin-5-yl)acetic acid]	14 nM	
Cc1ccc(-c2c(C)c3c(c(C)c2[C@H](OC(C)(C)C)C(=O)O)CN(C(=O)C2CCC2)C3)cc1 [Example 228, (S)-2-(tert-butoxy)-2-(2-(cyclobutanecarbonyl)-4,7-dimethyl-6-(p-tolyl)isoindolin-5-yl)acetic acid]	13 nM	
Cc1ccc(-c2c(C)c3c(c(C)c2[C@H](OC(C)(C)C)C(=O)O)CN(C(=O)c2ccccc2)C3)cc1 [Example 229, (S)-2-(2-benzoyl-4,7-dimethyl-6-(p-tolyl)isoindolin-5-yl)-2-(tert-butoxy)acetic acid]	5 nM	

SMILES	IC50 (MT4, 96 h)	IC50
Cc1ccc(-c2c(C)c3c(c(C)c2[C@H](OC(C)(C)C)C(=O)O)CN(C(=O)c2cccc(C(C)(C)C)c2)C3)cc1 [Example 230, (S)-2-(tert-butoxy)-2-(2-(3-(tert-butyl)benzoyl)-4,7-dimethyl-6-(p-tolyl)isoindolin-5-yl)acetic acid]	111 nM	
Cc1ccc(-c2c(C)c3c(c(C)c2[C@H](OC(C)(C)C)C(=O)O)CN(C(=O)[C@H]2CCOC2)C3)cc1 [Example 231, (S)-2-(tert-butoxy)-2-(4,7-dimethyl-2-((S)-tetrahydrofuran-3-carbonyl)-6-(p-tolyl)isoindolin-5-yl)acetic acid]	37 nM	
CCOCCC(=O)N1Cc2c(C)c(-c3ccc(C)cc3)c([C@H](OC(C)(C)C)C(=O)O)c(C)c2C1 [Example 232, (S)-2-(tert-butoxy)-2-(2-(3-ethoxypropanoyl)-4,7-dimethyl-6-(p-tolyl)isoindolin-5-yl)acetic acid]	148 nM	
Cc1ccc(-c2c(C)c3c(c(C)c2[C@H](OC(C)(C)C)C(=O)O)CN(C(=O)Cc2cccc(F)c2)C3)cc1 [Example 233, (S)-2-(tert-butoxy)-2-(2-(2-(3-fluorophenyl)acetyl)-4,7-dimethyl-6-(p-tolyl)isoindolin-5-yl)acetic acid]	12 nM	
Cc1ccc(-c2c(C)c3c(c(C)c2[C@H](OC(C)(C)C)C(=O)O)CN(C(=O)c2cccc(OC(C)C)c2)C3)cc1 [Example 234, (S)-2-(tert-butoxy)-2-(2-(3-isopropoxybenzoyl)-4,7-dimethyl-6-(p-tolyl)isoindolin-5-yl)acetic acid]	26 nM	
COc1cncc(C(=O)N2Cc3c(C)c(-c4ccc(C)cc4)c([C@H](OC(C)(C)C)C(=O)O)c(C)c3C2)c1 [Example 235, (S)-2-(tert-butoxy)-2-(2-(5-methoxynicotinoyl)-4,7-dimethyl-6-(p-tolyl)isoindolin-5-yl)acetic acid]	5 nM	
Cc1ccc(-c2c(C)c3c(c(C)c2[C@H](OC(C)(C)C)C(=O)O)CN(C(=O)c2cncc(C)c2)C3)cc1 [Example 236, (S)-2-(tert-butoxy)-2-(4,7-dimethyl-2-(5-methylnicotinoyl)-6-(p-tolyl)isoindolin-5-yl)acetic acid]	5 nM	
Cc1ccc(-c2c(C)c3c(c(C)c2[C@H](OC(C)(C)C)C(=O)O)CN(C(=O)c2cn(C)cn2)C3)cc1 [Example 237, (S)-2-(tert-butoxy)-2-(4,7-dimethyl-2-(1-methyl-1H-imidazole-4-carbonyl)-6-(p-tolyl)isoindolin-5-yl)acetic acid]	67 nM	
Cc1ccc(-c2c(C)c3c(c(C)c2[C@H](OC(C)(C)C)C(=O)O)CN(C(=O)c2nccn2C)C3)cc1 [Example 238, (S)-2-(tert-butoxy)-2-(4,7-dimethyl-2-(1-methyl-1H-imidazole-2-carbonyl)-6-(p-tolyl)isoindolin-5-yl)acetic acid]		940 nM
Cc1ccc(-c2c(C)c3c(c(C)c2[C@H](OC(C)(C)C)C(=O)O)CN(C(=O)c2nccn2C)C3)cc1 [Example 239, (S)-2-(tert-butoxy)-2-(4,7-dimethyl-2-(1-methyl-1H-imidazole-2-carbonyl)-6-(p-tolyl)isoindolin-5-yl)acetic acid]		16 nM
Cc1ccc(-c2c(C)c3c(c(C)c2[C@H](OC(C)(C)C)C(=O)O)CN(C(=O)c2ccn(C)n2)C3)cc1 [Example 240, (S)-2-(tert-butoxy)-2-(4,7-dimethyl-2-(1-methyl-1H-pyrazole-3-carbonyl)-6-(p-tolyl)isoindolin-5-yl)acetic acid]	121 nM	
Cc1ccc(-c2c(C)c3c(c(C)c2[C@H](OC(C)(C)C)C(=O)O)CN(C(=O)C(C)(C)C(F)(F)F)C3)cc1 [Example 241, (S)-2-(tert-butoxy)-2-(4,7-dimethyl-6-(p-tolyl)-2-(3,3,3-trifluoro-2,2-dimethylpropanoyl)isoindolin-5-yl)acetic acid]	25 nM	
Cc1ccc(-c2c(C)c3c(c(C)c2[C@H](OC(C)(C)C)C(=O)O)CN(C(=O)c2ccccc2C(C)(C)C)C3)cc1 [Example 242, (S)-2-(tert-butoxy)-2-(2-(2-(tert-butyl)benzoyl)-4,7-dimethyl-6-(p-tolyl)isoindolin-5-yl)acetic acid]	13 nM	
Cc1ccc(-c2c(C)c3c(c(C)c2[C@H](OC(C)(C)C)C(=O)O)CN(C(=O)C2(C)CCCCC2)C3)cc1 [Example 243, (S)-2-(tert-butoxy)-2-(4,7-dimethyl-2-(1-methylcyclohexanecarbonyl)-6-(p-tolyl)isoindolin-5-yl)acetic acid]	18 nM	
COC1CCCC(C(=O)N2Cc3c(C)c(-c4ccc(C)cc4)c([C@H](OC(C)(C)C)C(=O)O)c(C)c3C2)C1 (stereo partly drawn) [Example 244, (2S)-2-(tert-butoxy)-2-(2-(3-methoxycyclohexanecarbonyl)-4,7-dimethyl-6-(p-tolyl)isoindolin-5-yl)acetic acid]	14 nM	
COC1CCCC(C(=O)N2Cc3c(C)c(-c4ccc(C)cc4)c([C@H](OC(C)(C)C)C(=O)O)c(C)c3C2)C1 (stereo partly drawn) [Example 245, (2S)-2-(tert-butoxy)-2-(2-(3-methoxycyclohexanecarbonyl)-4,7-dimethyl-6-(p-tolyl)isoindolin-5-yl)acetic acid]		26 nM
